The values that follow come from patent publication US7858634B2, “Amorphous 3-pyridil-1-hydroxyethyliden-1,1-biphosphonic acid monosodium salt and process for the preparation thereof” (Chemi SpA, priority 2004, dated 2010).

The series is described as follows: comparative dissolution test in deionized water. Particulars: for time to complete dissolution: 200 mg suspended in 25 ml deionized water, 20° C., magnetic stirring at 25 rpm, monosodium salt.

On to `O=P([O-])(O)C(O)(Cc1cccnc1)P(=O)(O)O.[Na+]` [amorphous sodium risedronate, 3-pyridil-1-hydroxyethyliden-1,1-biphosphonic acid monosodium salt], for which the “time to complete dissolution” value was ≤ 2 ′. Further, under “amorphous form, preferably lyophilized, vs commercially available or otherwise described crystalline forms”, the “water solubility with respect to crystalline forms” value is given as “improved water solubility”.

Consider `O=P([O-])(O)C(O)(Cc1cccnc1)P(=O)(O)O.[Na+]` [sodium risedronate hemipentahydrate, 3-pyridil-1-hydroxyethyliden-1,1-biphosphonic acid monosodium salt], for which the “time to complete dissolution” value is recorded as > 30 ′.
